According to patent publication US10759754B2, “Aminobenzoic acid derivatives for use as anti-inflammatory agents, anti-metastatic agents and/or anticancer agents” (3R VALO, S.E.C., priority 2016, dated 2020):
Entries after “also recorded” stand apart in the source; their conditions may differ.

Tests used:
STAT3 = assay: Western blot of phosphorylated STAT3 in IL6-activated human macrophages; format: cell-based; details: human macrophages pretreated 30 min at 10 and 50 μM; 30 min activation with 25 ng/mL IL6
Procedure: Cell signaling studies: THP1-derived human macrophages (750×10^3 cells/mL) and MB49-I cells (500×10^3 cells/mL) were pretreated for 30 min with vehicle (DMSO), compounds 4 and 5, at 10, 25 or 50 μM; and then washed and recovered immediately (t=0 min) or after 30 min of activation with 50 U/mL IFNγ, 25 ng/mL IL6, or 10 ng/mL TNFα. Cell lysates were prepared and analyzed by immunoblotting as described.^21-23,25 Briefly, protein samples were resolved by SDS-PAGE under reducing conditions and transferred onto a PVDF membrane. Blots were first probed with rabbit polyclonal antibodies against phospho-STAT1 (pSTAT1), pSTAT3, or p-IκB (all at 1:2000) overnight at 4° C. Blots were then incubated with HRP-conjugated goat anti-rabbit IgG Ab (1:3000) for 1 h at room temperature. The same blots were stripped and then probed with anti-STAT1 or anti-STAT3 Abs (both at 1:1000). In both cases, probed molecules were visualized using an enhancement chemiluminescence detection kit (Thermo Fisher Scientific).

[1] = tested on: macrophage-like J774A.1 cells; assay: IFNγ/TNFα-induced NO production (Griess) in J774A.1 cells; format: cell-based, murine; details: pretreatment then IFNγ and TNFα
Procedure: (§1) Evaluation of NO and Urea production by chemical methods. The MB49-I cells and the J774A.1 cells (25×10^3 cells/well) were grown and pretreated, as indicated, with various anti-inflammatory derivatives, precursors and mono-functional derivatives for a period of 3 h. Afterwards the cells were washed twice with 10% FBS RPMI-1640 and then activated to produce NO for a period of 24 h with cytokines INFγ and TNFα. NO production was measured using the Griess reagent method as previously described.^27 This method involves the detection of nitrite ions (NO2^−) formed by the spontaneous oxidation of NO under physiological conditions. According the manufacture procedure (Life Technologies; # G-7921), equal volumes of sulfanilic acid and N-(1-naphthyl)ethylenediamine are mixed together to form the Griess reagent. In the presence of NO2^−, sulfanilic acid is converted to a diazonium salt, which in turn is coupled to N-(1-naphthyl)ethylenediamine to produce a pink coloration that is measured with a spectrophotometer (Biotek, synergy HT) at 548 nm. In the same manner, urea synthesis through arginase-1 activity was measured using commercially available kit.

MB49 cells = assay: Relative cell viability of MB49 cells 24-hour post treatment; format: cell-based, murine; details: 3 h treatment, 0-50 μM
Procedure: Evaluation of cell proliferation by the MTT assay. […] Cells were pretreated for a period of 3 h with vehicle (DMSO) or derivatives 1 and 1A at 0, 10, 25, 37.5, and 50 μM, and then incubated for 24 h in the absence or the presence of INFγ and TNFα. At the end of the culture period, 10 μL of 5 mg/mL methylthiazolyldiphenyl-tetrazolium bromide (MTT) solution was added to each well. After a 3-h incubation period with MTT reagent, 100 μL of MTT solubilization buffer (10% SDS in 10 mM HCl) was added and plates were placed overnight in the cell incubator before absorbance measure. The optical density was read at 580 nm using the Microplate Reader Manager (from Bio-Rad Laboratories).

human UBC T24 cells = assay: Motility (scratch) assay, IL6-induced, in T24 cells; format: cell-based; details: 30 μM
MB49-I tumors [2] = assay: Ectopic UBC model, MB49-I tumors implanted in the flank of male mice; format: in vivo
Procedure: Ectopic UBC model. Male C57BL/6J mice (6-8 weeks old), each weighing 15-18 g, were used for the experiments (supplied by Charles River). The mice were housed with free access to food and water on a 12:12 h light:dark cycle with the room temperature maintained at 21° C. MB49 cells, MB49-I cells, and iNOS-deficient MB49-I cells ([…] in 100 μL PBS) were injected subcutaneously (s.c.) into the right flank of the mice. Growth rates of the s.c. tumors were monitored. The size of tumors was determined every 3 days for 24-28 days using a digital caliper and by measuring luciferin luminescence at days 15 and 25 using the IVIS imaging system. A blinded observer measured tumor length and width. The volume of the tumor was calculated from the formula: Length×width2×0.52, where length and width were tumor diameters measured with calipers in mutually perpendicular directions. At a tumor size of approximately 10 mm^3 the mice were divided into different groups. A control group received PBS as treatment. As indicated, other groups were treated at different doses (90, 150 or 300 μM) with an intraperitoneal (i.p.) injection of compounds 4 or 8 every 3-4 days for 18-20 days.^24,27

MB49-I tumors [3] = assay: Orthotopic UBC model, MB49-I tumors implanted in the bladder of female mice; format: in vivo; details: i.p. biweekly at 150 μM during two weeks
Procedure: Orthotopic UBC model. Female C57BL/6J mice (6-8 weeks old), each weighing 15-18 g, were anesthetized and a 24-gauge Teflon catheter was introduced into the bladder lumen through the urethra. To prepare the bladder for tumor implantation, a point lesion was induced in the bladder wall by electrocauterization. Then, 1×10^5 of MB49-I cells in 100 μl of PBS were instilled into the bladder. When indicated, control mice were electrocauterized and PBS was instilled into the bladder. Syringes containing the cell suspension were maintained into the catheter for 20 min to allow cell attachment to the bladder wall.^24,27

peritoneal macrophages = assay: NO and urea production in peritoneal macrophages after in vivo treatment of MB49 tumor-bearing mice; details: treatment at 90 and 150 μM; macrophages recovered day 26
Procedure: as §1, with “According the manufacture procedure (Life Technologies; # G-7921), equal volumes of sulfanilic acid and N-(1-naphthyl)ethylenediamine are mixed together to form the Griess reagent.” left out
Ectopic UBC model. […] Growth rates of the s.c. tumors were monitored. The size of tumors was determined every 3 days for 24-28 days using a digital caliper and by measuring luciferin luminescence at days 15 and 25 using the IVIS imaging system. A blinded observer measured tumor length and width. […]

MB49-I cells = assay: LPS/IFNγ-induced NO production in MB49-I cells; format: cell-based, murine; details: compound 4 at 30 μM, compound 12 at 10, 20, 37.5 and 50 μM
Procedure: as §1, with “Afterwards the cells were washed twice with 10% FBS RPMI-1640 and then activated to produce NO for a period of 24 h with cytokines INFγ and TNFα.” left out

[4] = tested on: IκB / NFκB signaling pathway; assay: Western blot of phosphorylated IκB in LPS-activated RAW 264.7 cells; format: cell-based, murine; details: 90 min pretreatment at 20 and 37.5 μM, 100 ng/mL LPS 15 min

## CC(C)(C)OC(=O)NNC(=O)c1ccc(N2C(=O)C=CC2=O)cc1 [Compound 4, N′-[4-(2,5-dioxo-2,5-dihydro-pyrrol-1-yl)-benzoyl]-hydrazine carboxylic acid tert-butyl ester]
STAT3
  IL6-induced STAT3 activation (ratio of phosphorylated/no phosphorylated proteins): decreased; also recorded: efficiently inhibited
[1]
  combined IFNγ/TNFα-induced NO synthesis: effective in reducing; also recorded: efficiently inhibited
MB49 cells
  relative cell viability / cell survival: stopping cell proliferation
Human UBC T24 cells
  IL6-induced motility (scratch assay): inhibit; also recorded: efficiently inhibited
MB49-I tumors [2]; i.p. 150 μM
  histological examination of lung specimens: no metastatic foci
  number of lung metastases: significant decrease; also recorded: significantly reduce
  size of subcutaneously implanted MB49-I tumors: significantly reduce
  tumor development of MB49-I cells subcutaneously implanted: significant decrease; also recorded: significantly affects
MB49-I tumors [2]; i.p. 150 μM during 18 days, tumors recovered day 20
  tumor volume of muscle-invasive MB49-I tumors: anti-proliferative activity
MB49-I tumors [3]
  development of muscle-invasive MB49-I tumors in the bladder: stopped; also recorded: completely abolished
Peritoneal macrophages
  NO production in peritoneal macrophages: significant decrease; also recorded: significantly decrease
  urea synthesis and release in peritoneal macrophages: significant decrease; also recorded: significantly decrease
MB49-I cells
  LPS/IFNγ-induced NO synthesis: inhibitory effect
[4]
  LPS-activated NFκB signaling pathway (ratio p-IkB/IkB): efficient to inhibit
